Source: patent publication US8877889B2, “Tumor cell-killing peptides” (Industry-Academic Cooperation Foundation, Chosun University, priority 2009, dated 2014)
Entries after “also recorded” stand apart in the source; their conditions may differ. No end group written: not given here.

Key:
[1] = test system: CT26 mouse colon carcinoma cells; experiment: Tumor cell killing activity, bright field images; format: cell-based; settings: 10 μM peptide (FIG. 9A)
Method: (A) CT26 cells were treated with 10 μM MTD, TU1:MTD, TU2:MTD, or TU3:MTD peptides, and bright field images for indicated peptides were obtained at indicated time points. Representative images of at least 3 individual experiments were presented.

CT-26 cells = experiment: Syngeneic animal tumor model; format: in vivo; settings: Balb/c mice with CT26 tumors; for tumor size (tumor volume) versus PBS: i.v. tail vein every two days, TU2:MTD 385 μg/mouse, TU3:MTD 230 μg/mouse; for cell death of tumor cells, histochemical examination of tumors: i.v., hematoxylin and eosin
Method: (§1) (A) CT26 cells were injected subcutaneously into the Balb/c mice. Tumor cells were grown for 7 days, and TU2:MTD peptide (385 μg/mouse) or PBS was intravenously injected through the tail vein (n=10 animals/group) every two days from day 7 to day 19. Tumor volume was calculated as the longest diameter×width2×0.5.
(B) TU3:MTD peptide (230 μg/mouse) or PBS were intravenously injected to the Balb/c mice bearing tumor through the tail vein (n=5 animals/group) every two days from day 8 to day 20. Tumor volume was measured as described above.
(C) Tumors were obtained from the mice treated with PBS, TU2:MTD or TU3:MTD upon sacrificing the mice, and were stained with hematoxylin and eosin. Images (400× magnification) at tumor regions were obtained (left), and the boxed region were enlarged (right).
as §1, with “(B)” for “(A)”, “weights were measured after mice were sacrificed.” for “volume was calculated as the longest diameter×width2×0.5.”
(C) TU3:MTD peptide (230 μg/mouse) or PBS were intravenously injected to the Balb/c mice bearing tumor through the tail vein (n=5 animals/group) every two days from day 8 to day 20. Tumor weights were measured as described above.
(§2) We followed the university's institutional guidelines and regulations for animal experiments. Tumors were established in Balb/c mice by subcutaneous injection of CT-26 cells (1.5×10^5 cells) into the mouse as described (14). Tumor volume was calculated as length×width^2×0.5. Tumor cells were grown for 7 to 8 days, and TU2:MTD peptide (385 μg/mouse), TU3:MTD peptide (230 μg/mouse), or PBS was intravenously injected through the tail vein every two days until the mice were sacrificed.

[2] = Toxicity in peptide-injected mice (histology of skin, liver, kidney; body weight); format: in vivo, Balb/c mice; settings: for apparent toxic effects in mice: i.v. injected mice; for damage in liver and kidney tissues, microscopic analysis: mice injected seven times every two days; for body weight loss: peptide-injected mice; for cell death in dermis and epidermis regions: peptide-injected tumor-bearing mice, hematoxylin and eosin
Text: (D) Images (400× magnification) of liver and kidney from normal mice or mice treated with, PBS, TU2:MTD or TU3:MTD peptides seven times every two days were obtained after stained with hematoxylin and eosin.
(D) Images (100× magnification) of dermis and epidermis region of normal skin or adjacent to tumor treated with PBS, TU2:MTD or TU3:MTD peptides were obtained after stained with hematoxylin and eosin.
as §2

HeLa cells [3] = experiment: Cell death assayed by cell counting kit-8, with or without caspase inhibitor pre-treatment; format: cell-based; settings: 5 μM peptide for 5 hours (FIG. 2C)
Method: (C) HeLa cells were pre-treated with zVAD-fmk (25 μM) or IDN-6556 (25 μM) 1 hour before MTD-peptide treatment. After treatment of 5 μM of R8, ΔR8-MTD, and R8:MTD peptides for 5 hours, cell death was assayed by cell counting kit-8 (Dojindo Molecular Technologies, Rockville, USA).

HeLa cells [4] = experiment: Peptide-induced cell death, counting dead and survived cells under the light microscope; format: cell-based; settings: peptides 10 μM, 20 μM, 30 μM, 10 minutes after treatment (FIG. 1B, 3A)
Method: (B) HeLa cells were treated with DMSO or the indicated peptides in increasing doses (10 μM, 20 μM, and 30 μM). % of cell death was determined at 10 minutes after treatment by counting the dead cells and survived cells under the light microscope.
(E) HeLa cells were transfected with substitution mutants of MTD peptide.
HeLa cells were treated with DMSO or with the indicated peptides at increasing doses (10 μM, 20 μM, or 30 μM). % cell death was determined 10 minutes after treatment by counting the dead cells and survived cells (300 cells per sample) under the light microscope.
(D) HeLa cells were treated with indicated amounts of MTD peptide for 1 hour, 2 hours, or 5 hours. % cell death was calculated by counting the dead cells and survived cells (200 to 500 cells per sample) under the light microscope. Data represent the means±SD of three independent experiments.

[5] = test system: Isolated mouse liver mitochondria; experiment: Isolated mitochondria treated with peptide, transmission electron microscopy; settings: 10 μM peptide; 1 hour at 30° C.
Method: (D) Isolated mouse liver mitochondria were treated with buffer (NT), MTD peptide (10 μM), or MTDmt5 peptide (10 μM), and then incubated for 1 hour at 30° C. Mitochondria were harvested by centrifugation (10,000×rpm) and then processed for transmission electron microscopy. Images (upper panel) were obtained with 7,000× magnification, and the relative mitochondrial sizes (lower panel) were calculated by measuring the diameters of about 40 individual mitochondria.
Jurkat cells or isolated mitochondria treated with MTD peptides were harvested by centrifugation and fixed with 2.5% glutaraldehyde for 2 hours followed by washing with 0.2 M sodium cacodylate buffer (pH 7.2) three times for 10-20 minutes. Fixation step was repeated overnight and washed with 0.2 M sodium cacodylate buffer three times. Samples were dehydrated with following sequential solutions 60% ethanol, 70% ethanol, 80% ethanol, 90% ethanol, 95% ethanol, and 100% ethanol twice for 20 minutes at 4° C., and then infiltrated by propylene oxide three times for 20 minutes. Samples were embedded with the mixture of propylene oxide and epon for 6 hours. Electron microscopic images were obtained using the Hitachi H-7600 electron microscope (80 kV, Hitachi, Tokyo, Japan). Mitochondria were isolated from mouse liver as previously described (1).

NCI-H460 cells = experiment: Peptide-induced cell death in NCI-H460 cells; format: cell-based; settings: 5 μM, 2 or 5 hours (FIG. 3C)
Method: (C) NCI-H460 cells were treated with indicated peptides for 2 hours or 5 hours. % cell death was determined as described above.

HeLa cells [6] = experiment: Caspase activation, western blot of cell lysates; format: cell-based; settings: 5 μM peptide
Method: (E) After treatment with the MTD peptide, MTDmt4, or MTDmt5 (5 μM) in HeLa cells, cell lysates were prepared at indicated times. Equal amounts of proteins were subjected to the SDS-PAGE and blotted onto PVDF membrane. After blocked with 5% nonfat milk in TBST (10 mM Tris-HCl, pH 7.5, 100 mM NaCl and 0.1% Tween-20), the membrane was probed with anti-caspase-3 (SantaCruz Biotechnology, Inc., Santa Cruz, Calif., USA), anti-caspase-8 (Cell signaling technology, Beverly, Mass., USA), anti-caspase-9 (SantaCruz Biotechnology, Inc., Santa Cruz, Calif.), anti-XIAP (Upstate Biotechnology, Dundee, United Kingdom), or anti-Bid (home-made) antibodies. Anti-actin antibody (Chemicon International, Inc., Temecula, Calif., USA) was used as equal loading control.

HeLa cells [7] = experiment: Measurement of intracellular calcium with Fluo-4-AM; format: cell-based; settings: 3 μM peptide
Method: (A-C) HeLa cells were loaded with 3 μM Fluo-4-AM for 30 minutes and then treated with 3 μM of indicated peptides (A: MTD, B: MTDmt3, C: MTDmt5). Fluorescence images and bright-field images were obtained with the laser scanning confocal microscope at 5-second intervals for 5 minutes. Relative fluorescence intensities (F/F0) at two region-of-interests (ROI 1 and 2) were measured at 5-second intervals for 5 minutes.
(E-G) HeLa cells were pretreated in calcium free KRB media alone (E), in KRB media with 10 μM 2-APB and 20 μM Ryanodine (F), or in KRB media with freshly made 30 μM CsA (G) for 2 hours. HeLa cells were then loaded with 3 μM Fluo-4-AM for 30 minutes and treated with 3 μM of MTD peptide. Images were obtained with the laser scanning confocal microscope at 5-second intervals for 5 minutes. Relative fluorescence intensities (F/F0) at two region-of-interests (ROI 1 and 2) were measured at 5-second intervals for 5 minutes.
For Ca^2+ measurements in the cytosol, HeLa cells were cultured in an Lab-Tek™ Chamber glass slide and loaded with Fluo-4-AM (Fluo-4-acetoxymethyl ester) at a final concentration of 3 μM for 30 minutes, followed by washing with PBS (Phosphate buffered saline) at pH 7.4 and the addition of fresh Ca^2+-free Krebs-ringer modified buffer (KRB: 125 mM NaCl, 5 mM KCl, 1 mM Na3PO4, 1 mM MgSO4, 5.5 mM glucose, and 20 mM HEPES, pH 7.4, at 37° C.) containing the indicated peptides. Time-lapse images were obtained at 488 nm excitation with the Argon laser scanning confocal microscope (Leica TCS SP5 Microsystems, Mannheim, Germany) at 10-second intervals for 5 minutes to visualize Fluo-4-AM.

HeLa cells [8] = experiment: Cell death after transfection of Noxa constructs, counting EGFP-positive dead cells; format: cell-based
Method: (D) HeLa cells were transfected with deletion mutants of Noxa. At 11 hrs, 24 hrs, and 36 hrs after transfection, cell death was determined by counting EGFP-positive dead cells with morphological changes using the fluorescent microscope.
(B) HeLa cells were transfected with WT or with the indicated Noxa mutants. 20 hours after transfection cell death was determined by counting the EGFP-positive dead and survived cells under the fluorescent microscope.
(A) HeLa cells were transfected with either WT Noxa, 4Lmt (L42A, L43A, L45A, L49A), or 5Lmt (L29A, L42A, L43A, L45A, L49A) constructs. At the indicated times after transfection, cell death was determined by counting the EGFP-positive dead cells with morphological changes under the fluorescent microscope.
HeLa cells were transfected with EGFP-Noxa WT and 41-54 in combination with Bcl-2 expression plasmid or in the presence of zVAD-fmk (25 μM). 18 hours after transfection, cell death was determined by counting EGFP-positive dead cells with morphological changes using the fluorescent microscope. Data represent an average±SD of three experiments each with 200 total cells counted.
The percentage of cell death was determined by counting EGFP-positive dead cells with morphology using the fluorescent microscope. Minimally, 300 cells in three separate fields were counted for each measurement.

HeLa cells [9] = experiment: Cytochrome c release by immunofluorescence; format: cell-based; settings: HeLa cells transfected; 2 days in the presence of zVAD-fmk
Method: (B) Plasmids (control vector or Noxa WT fused to GFP) were transfected into HeLa cells. After 2 days in the presence of zVAD-fmk, cytochrome c was stained with anti-cytochrome c antibody. Arrows indicate the diffused cytochrome c staining (upper panel). The release of cytochrome c was analyzed by immunofluorescence in HeLa cells after treatment with MTD peptides (5 μM) (lower panel).

Row | Substance | tumor cell killing activity [1] | tumor size (tumor volume) versus PBS (CT-26 cells) | cell death of tumor cells, histochemical examination of tumors (CT-26 cells) | apparent toxic effects in mice [2] | damage in liver and kidney tissues, microscopic analysis [2] | body weight loss [2] | cell death in dermis and epidermis regions [2] | also measured
1 | CGNKRTRGCGGKLLNLISKLF (TU3-MTD fusion peptide derived from Homo sapiens) [TU3:MTD] | comparable killing activities to MTD peptide | significantly smaller tumors | massive cell death of tumor cells | do not show apparent toxic effects | no damages in liver and kidney tissues | no body weight loss | no or little cell death | 
2 | CNGRCVSGCAGRCGGKLLNLISKLF (TU2-MTD fusion peptide derived from Homo sapiens) [TU2:MTD] | comparable killing activities to MTD peptide | significantly smaller tumors | massive cell death of tumor cells | do not show apparent toxic effects | no damages in liver and kidney tissues | no body weight loss | no or little cell death | 
3 | KLLNLISKLF [ΔR8:MTD] |  |  |  |  |  |  |  | cell death (HeLa cells [3]): could not cause cell death; also recorded: no cell death-inducing activity
4 | RRRRRRRRGRQKLLNLISKAA (PTD-MTDmt5 fusion peptide derived from Homo sapiens) |  |  |  |  |  |  |  | cell death-inducing activity (% of cell death) (HeLa cells [4]): no killing activity; also recorded: completely lost their cell death-inducing activities; also recorded: no cell death; morphological changes or mitochondrial size changes of isolated mitochondria [5]: did not show any morphological changes or mitochondrial size changes; susceptibility of cells to peptide (NCI-H460 cells): not; caspase activation (HeLa cells [6]): not activated; cytosolic calcium level change (HeLa cells [7]): did not induce changes in the cytosolic calcium level
5 | WT Noxa: wild type Noxa (1-54) expressed from pEGFP-Noxa by transfection (MPGKKARKNAQPSPARAPAELEVECATQLRRFGDKLNFRQKLLNLISKLFCSGT; cysteine pairing not given here; also: EGFP fusion (pEGFP-Noxa); UniProt Q13794 1-54, looked up) |  |  |  |  |  |  |  | cell death (HeLa cells [8]; HeLa cells transfected (FIG. 8A)): more than 60%; cell death after over-expression (HeLa cells [8]; HeLa cells, within 11 hrs after transfection (FIG. 1D)): induced cell death within 11 hrs; inhibition of transfection-induced cell death by zVAD-fmk (HeLa cells [8]; HeLa cells, zVAD-fmk 25 μM, 18 hours after transfection (FIG. 10)): significantly inhibited by zVAD-fmk; cytochrome c release from mitochondria (HeLa cells [9]): able to release the cytochrome c from mitochondria
